Active and inactive are the calls of the source.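 How the source made its calls: active means lipid-stain IC50 at or below a set limit, with nuclear-stain toxicity IC50 at least five times higher; inactive means the rest.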
What was measured:
DAPI = assay: triacylglycerol accumulation inhibitor potency, dose response, cell-based, panel, Nile Red and DAPI fluorescence, H9c2 (AID 651630); conditions: H9c2 cells, DAPI nuclear fluorescence (cytotoxicity counter-readout), oleic acid;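 further: cells exposed to compound overnight before fixation and staining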
TAG = assay: as above; conditions: H9c2 cells, Nile Red TAG fluorescence, oleic acid

Row | SMILES | IC50 cytotoxicity (DAPI nuclear signal decrease) (DAPI; mean of runs) | IC50 cytotoxicity (DAPI nuclear signal decrease) (DAPI; run 1) [µM] | IC50 cytotoxicity (DAPI nuclear signal decrease) (DAPI; run 2) [µM] | IC50 (TAG; mean of runs) | IC50 (TAG; run 1) [µM] | IC50 (TAG; run 2) [µM]
1 | CC(C)NC(=O)N(C)C[C@H]1Oc2cc(C#Cc3ccc(F)cc3)ccc2S(=O)(=O)N([C@H](C)CO)C[C@H]1C | > 25 µM (inactive) | > 25 | > 25 | 8.39 µM | 11 | 5.81
2 | COc1cc(C#Cc2c(-c3cncn3C)n(C)c3ccc(-c4cnc(N5CCOCC5)nc4)cc23)cc(OC)c1 | > 25 µM (inactive) | > 25 | > 25 | 11 µM | 14.3 | 7.65
3 | Cc1cccn2c(=O)c3cc(C(=O)NC4CCCC4)c(=N)n(C4CCCC4)c3nc12 | > 25 µM (inactive) | > 25 | > 25 | 11.9 µM | 8.07 | 15.8
4 | O=C(c1ccoc1)N1CCN(c2cc(-c3cccnc3)nc3cc(-c4cccc(Cl)c4)nn23)CC1 | – | > 25 | > 25 | 4.93 µM | 3.16 | 6.71
5 | CC1(C(=O)NCc2cccs2)Cc2c(-c3ccc4c(c3)OCO4)ccnc2O1 (configuration not stated) | > 25 µM (inactive) | > 25 | > 25 | > 25 µM (inactive) | > 25 | > 25
6 | CCOC(=O)N1CCN(C(=O)c2ccccc2N(Cc2ccccc2)S(=O)(=O)c2ccc(OC)cc2)CC1 | > 25 µM (inactive) | > 25 | > 25 | 19.9 µM (inactive) | 24.3 | 15.5
7 | COc1ccc2sc(-c3ccc(S(C)(=O)=O)cc3)c(C#Cc3cncn3C)c2c1 | > 25 µM (inactive) | > 25 | > 25 | > 25 µM (inactive) | > 25 | > 25
8 | OCCCn1c(C2CCCN2c2nc(-c3ccc(F)cc3)cs2)nc2cc(C(F)(F)F)ccc21 (configuration not stated) | > 25 µM (inactive) | > 25 | > 25 | 14 µM | 14.1 | 13.9
9 | CCCCCc1cc(=O)oc2c(C(CCN(CC)CC)c3ccc(OC)cc3)c(OC)cc(OC)c12 (configuration not stated) | > 25 µM (inactive) | > 25 | > 25 | > 25 µM (inactive) | > 25 | > 25
10 | O=C(NCCc1c[nH]c2ccccc12)C1CCC(Cn2c(=S)[nH]c3ccccc3c2=O)CC1 (configuration not stated) | > 25 µM (inactive) | > 25 | > 25 | – | > 25 | 22.2
11 | O=C(Nc1ccccc1N1CCCCC1)c1ncoc1-c1ccc(F)cc1 | > 25 µM (inactive) | > 25 | > 25 | > 25 µM (inactive) | > 25 | > 25
12 | COc1ccc(OC)c(NS(=O)(=O)c2ccc(N3CCCC3=O)cc2)c1 | > 25 µM (inactive) | > 25 | > 25 | > 25 µM (inactive) | > 25 | > 25
13 | COc1ccc2sc(-c3ccc(N(C)C)cc3)c(C#CCCO)c2c1 | > 25 µM (inactive) | > 25 | > 25 | 8.86 µM | 7.52 | 10.2
14 | NC(=O)c1cc(-c2ccccc2)nc(N2CCOCC2)n1 | > 25 µM (inactive) | > 25 | > 25 | – | > 25 | 20.3
15 | COc1ccc(CC(N)c2csc(NC(=O)Nc3ccccc3C(C)C)n2)cc1 (configuration not stated) | 21.5 µM (inactive) | 20.3 | 22.7 | > 25 µM (inactive) | > 25 | > 25
16 | Cc1cc(C)n(-c2nc3c(c(=O)[nH]c(=O)n3C)n2CC(O)COc2ccc(Cl)cc2Cl)n1 (configuration not stated) | > 25 µM (inactive) | > 25 | > 25 | – | 11.2 | > 25
17 | COc1ccc2[nH]c3c(c2c1)CCN1C(=O)C(CC(=O)NC/C=C(\C)CCC=C(C)C)C[C@H](C(=O)N(C(C)C)C(C)C)[C@@]31C (some centres not stated) | – | 19.8 | > 25 | 19.3 µM (inactive) | 19.5 | 19.1

Row | SMILES | IC50 cytotoxicity (DAPI nuclear signal decrease) (DAPI; mean of runs) | IC50 cytotoxicity (DAPI nuclear signal decrease) (DAPI; run 1) [µM] | IC50 cytotoxicity (DAPI nuclear signal decrease) (DAPI; run 2) [µM] | IC50 (TAG; mean of runs) | IC50 (TAG; run 1) [µM] | IC50 (TAG; run 2) [µM]
18 | COc1cc(C2c3cc4c(cc3OC(C)(N3CCCC3)C2C)OCO4)cc(OC)c1OC (configuration not stated) | > 25 µM (inactive) | > 25 | > 25 | 13.8 µM | 10.4 | 17.1
19 | COC(=O)C1=C(c2cc3ccccc3s2)C[C@@H]2CC[C@H]1N2C(=O)N1CCOCC1 | > 25 µM (inactive) | > 25 | > 25 | > 25 µM (inactive) | > 25 | > 25
20 | O=C(CSc1nc2ccc(Nc3nc(N4CCOCC4)nc(N4CCOCC4)n3)cc2s1)Nc1ccccc1F | > 25 µM (inactive) | > 25 | > 25 | 12.9 µM | 12.6 | 13.2
21 | CCOc1ccc2nc(NC(=O)CN3CCC(n4nnc5cc(F)ccc54)CC3)sc2c1 | > 25 µM (inactive) | > 25 | > 25 | 21.3 µM (inactive) | 17.9 | 24.6
22 | COc1ccc(NC(=O)C2(C)Cc3c(-c4cccc(C(N)=O)c4)ccnc3O2)cc1 (configuration not stated) | > 25 µM (inactive) | > 25 | > 25 | – | > 25 | 12.1
23 | COc1ccc2cc3cc(C(=O)NCCc4ccc(OC)c(OC)c4)oc3nc2c1 | > 25 µM (inactive) | > 25 | > 25 | > 25 µM (inactive) | > 25 | > 25
24 | CCC1(O)CC2CN(CCc3c([nH]c4ccccc34)C(C(=O)OC)(c3cc4c(cc3OC)N(C=O)C3C(O)(C(=O)OC)C(OC(C)=O)C5(CC)C=CCN6CCC43C65)C2)C1 (configuration not stated) | > 25 µM (inactive) | > 25 | > 25 | – | < 0.78 | > 25
25 | CCCOC(=O)c1ccc(NC(=O)CCOc2ccccc2)cc1 | > 25 µM (inactive) | > 25 | > 25 | 21.5 µM (inactive) | 18.2 | 24.7
26 | COC(=O)[C@]1(Cc2ccccc2)N[C@H](c2ccc(-c3cccc(Cl)c3)c(OC)c2)[C@@H]2C(=O)N(C)C(=O)[C@@H]21 | > 25 µM (inactive) | > 25 | > 25 | > 25 µM (inactive) | > 25 | > 25
27 | COc1cccc(-c2cc(C(=O)Nc3ccc(N(C)C(C)=O)cc3)c3cc(Br)ccc3n2)c1 | > 25 µM (inactive) | > 25 | > 25 | 12.3 µM | 11.7 | 12.9
28 | COc1cccc(-c2nc(-c3ccc(NC(=O)Cc4ccccc4OC)cc3)no2)c1 | – | > 25 | > 25 | 4.52 µM | 3.4 | 5.64
29 | CC(C)(C)NC(=O)C[C@H]1C[C@H](C(=O)N2CCCCC2)[C@@]2(CCc3ccccc3)c3[nH]c4ccc(Cl)cc4c3CCN2C1=O | > 25 µM (inactive) | > 25 | > 25 | 17.7 µM (inactive) | 17.1 | 18.2
30 | COc1ccccc1-c1cc(NC=O)c2ncc(-c3cccc(C(=O)N(C)C)c3)n2c1 | > 25 µM (inactive) | > 25 | > 25 | 15.3 µM (inactive) | 17.5 | 13.1
31 | C[C@@H]1CN([C@H](C)CO)C(=O)c2c(c3ccccc3n2C)-c2ccccc2CO[C@H]1CN(C)Cc1ccc(Oc2ccccc2)cc1 | – | > 25 | 20 | > 25 µM (inactive) | > 25 | > 25
32 | COCCn1cnc2c(c1=O)c1nc3ccccc3nc1n2/N=C/c1ccc(OC)c(OC)c1 | – | 23.4 | > 25 | 5.19 µM | 3.71 | 6.68
33 | C[C@@]12C(=O)Nc3ccc(Br)cc3C(=O)N1[C@H]1c3cc(Br)ccc3OC[C@@H]1[C@@H]2c1ccccc1 | – | > 25 | > 25 | 4.98 µM | 4.48 | 5.47
